Measurements published in US8802597B2, “Herbicidal pyrimidines” (E I du Pont de Nemours and Company, priority 2003, dated 2014).
Where two headings read alike, the source gives them in different places.

Tests used:
Format in all cases: in vivo
[1] = test system: wild oat (Avena fatua); assay: Test B postemergence; conditions: Avena fatua, post-emergence, scale 0 to 100 (0 no effect, 100 complete control), read-out: Oat, Wild plant response rating
Outline: (§1)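 Under greenhouse conditions, seeded pots and young plants (1- to 4-leaf, 2 to 18 cm) were treated at the same time with test chemicals in a non-phytotoxic solvent mixture containing surfactant. Response was assessed visually after 13 to 15 days, from 0 (no effect) to 100 (complete control).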

[2] = test system: blackgrass (Alopecurus myosuroides); assay: Test B postemergence; conditions: Alopecurus myosuroides, post-emergence, scale 0 to 100 (0 no effect, 100 complete control), read-out: Blackgrass plant response rating
Outline: as §1

[3] = test system: crabgrass (Digitaria sanguinalis); assay: Test B pre/postemergence; conditions: Digitaria sanguinalis; for pest or weed control at 62 g/ha: 62 g ai/ha; for pest or weed control at 125 g/ha: 125 g ai/ha
Outline: as §1

[4] = test system: corn (Zea mays); assay: Test B pre/postemergence; conditions: Zea mays
Outline: as §1

[5] = test system: giant foxtail (Setaria faberii); assay: Test B pre/postemergence; conditions: Setaria faberi; for pest or weed control at 125 g/ha: 125 g ai/ha; for pest or weed control at 62 g/ha: 62 g ai/ha
Outline: as §1

[6] = test system: velvetleaf (Abutilon theophrasti); assay: Test B pre/postemergence; conditions: Abutilon theophrasti; for pest or weed control at 62 g/ha: 62 g ai/ha; for pest or weed control at 125 g/ha: 125 g ai/ha
Outline: as §1

[7] = test system: lambsquarters (Chenopodium album); assay: Test B pre/postemergence; conditions: Chenopodium album; for pest or weed control at 62 g/ha: 62 g ai/ha; for pest or weed control at 125 g/ha: 125 g ai/ha
Outline: as §1

[8] = test system: cocklebur (Xanthium strumarium); assay: Test B pre/postemergence; conditions: for pest or weed control at 125 g/ha: 125 g ai/ha
Outline: as §1

[9] = test system: barnyardgrass (Echinochloa crus-galli); assay: Test B pre/postemergence; conditions: Echinochloa crus-galli, scale 0 to 100 (0 no effect, 100 complete control); for pest or weed control at 62 g/ha: 62 g ai/ha; for pest or weed control at 125 g/ha: 125 g ai/ha
Outline: as §1

[10] = test system: pigweed (Amaranthus retroflexus); assay: Test B pre/postemergence; conditions: Amaranthus retroflexus; for pest or weed control at 62 g/ha: 62 g ai/ha; for pest or weed control at 125 g/ha: 125 g ai/ha
Outline: as §1

[11] = test system: Surinam grass (Brachiaria decumbens); assay: Test B pre/postemergence; conditions: Urochloa decumbens; for pest or weed control at 125 g/ha: 125 g ai/ha; for pest or weed control at 62 g/ha: 62 g ai/ha
Outline: as §1

[12] = test system: morningglory (Ipomoea coccinea); assay: Test B pre/postemergence; conditions: Ipomoea; for pest or weed control at 62 g/ha: 62 g ai/ha; for pest or weed control at 125 g/ha: 125 g ai/ha
Outline: as §1

[13] = test system: wheat (Triticum aestivum); assay: Test B pre/postemergence; conditions: Triticum aestivum, scale 0 to 100 (0 no effect, 100 complete control); for plant injury at 62 g/ha: 62 g ai/ha; for plant injury at 125 g/ha: 125 g ai/ha
Outline: as §1

[14] = test system: duck salad (Heteranthera limosa); assay: Test B flooded paddy test; conditions: Heteranthera limosa, Flood, scale 0 to 100, read-out: Plant response rating, Ducksalad
Outline: (§2)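 Plants were grown to the 2-leaf stage before treatment, then kept in a greenhouse for 13 to 15 days. Injury was rated visually against untreated controls on a 0 to 100 scale, where 0 is no effect and 100 is complete control.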

[15] = test system: rice (Oryza sativa); assay: Test B flooded paddy test; conditions: Flood, scale 0 to 100
Outline: as §2

[16] = test system: barnyardgrass (Echinochloa crus-galli); assay: Test B flooded paddy test; conditions: Flood, scale 0 to 100
Outline: as §2

[17] = test system: umbrella sedge (Cyperus difformis); assay: Test B flooded paddy test; conditions: Flood, scale 0 to 100
Outline: as §2

[18] = post-emergence, Postemergence, scale 0 to 100 (0 no effect, 100 complete control), read-out: Crabgrass plant response rating
[19] = post-emergence, Postemergence, scale 0 to 100 (0 no effect, 100 complete control), read-out: Foxtail, Giant plant response rating
[20] = post-emergence, Postemergence, scale 0 to 100 (0 no effect, 100 complete control), read-out: Velvetleaf plant response rating
[21] = post-emergence, Postemergence, scale 0 to 100 (0 no effect, 100 complete control), read-out: Lambsquarters plant response rating
[22] = post-emergence, Postemergence, read-out: Barnyardgrass plant response rating
[23] = pre-emergence, Preemergence, read-out: Plant response rating, Barnyardgrass
[24] = post-emergence, Postemergence, scale 0 to 100 (0 no effect, 100 complete control), read-out: Pigweed plant response rating
[25] = post-emergence, Postemergence, scale 0 to 100 (0 no effect, 100 complete control), read-out: Surinam Grass plant response rating
[26] = post-emergence, Postemergence, scale 0 to 100 (0 no effect, 100 complete control), read-out: Morningglory plant response rating
[27] = post-emergence, Postemergence, read-out: Wheat plant response rating
[28] = pre-emergence, Preemergence, read-out: Plant response rating, Wheat

Nc1nc(C2CC2)nc(C(=O)[O-])c1Cl.[Na+] [Compound 77, 6-amino-5-chloro-2-cyclopropyl-4-pyrimidinecarboxylic acid monosodium salt]
pest or weed control at 62 g/ha ([1]; 62 g ai/ha): 50% | pest or weed control at 125 g/ha ([1]; 125 g ai/ha): 60% | pest or weed control at 62 g/ha ([2]; 62 g ai/ha): 50% | pest or weed control at 125 g/ha ([2]; 125 g ai/ha): 60% | pest or weed control at 62 g/ha [3, 18]: 70% | pest or weed control at 125 g/ha [3, 18]: 80% | pest or weed control at 62 g/ha ([3]; pre-emergence, Preemergence, scale 0 to 100, 0 no effect, 100 complete control, read-out: Plant response rating, Crabgrass): 80% | pest or weed control at 125 g/ha ([3]; pre-emergence, Preemergence, scale 0 to 100 (0 no effect, 100 complete control), read-out: Plant response rating, Crabgrass): 90% | plant injury at 62 g/ha ([4]; post-emergence, Postemergence, 62 g ai/ha, scale 0 to 100 (0 no effect, 100 complete control), read-out: Corn plant response rating): 30% | plant injury at 125 g/ha ([4]; post-emergence, Postemergence, 125 g ai/ha, scale 0 to 100 (0 no effect, 100 complete control), read-out: Corn plant response rating): 80% | Corn plant response rating (crop injury, 0 = no effect, 100 = complete kill) at 62 g/ha ([4]; pre-emergence, Preemergence, 62 g ai/ha, scale 0 to 100, 0 no effect, 100 complete control): 70% | Corn plant response rating (crop injury, 0 = no effect, 100 = complete kill) at 125 g/ha ([4]; pre-emergence, Preemergence, 125 g ai/ha, scale 0 to 100 (0 no effect, 100 complete control)): 80% | pest or weed control at 125 g/ha [5, 19]: 80% | pest or weed control at 62 g/ha [5, 19]: 70% | pest or weed control at 125 g/ha ([5]; pre-emergence, Preemergence, scale 0 to 100 (0 no effect, 100 complete control), read-out: Plant response rating, Foxtail, Giant): 90% | pest or weed control at 62 g/ha ([5]; pre-emergence, Preemergence, scale 0 to 100, 0 no effect, 100 complete control, read-out: Plant response rating, Foxtail, Giant): 70% | pest or weed control at 62 g/ha [6, 20]: 80% | pest or weed control at 125 g/ha [6, 20]: 90% | pest or weed control at 62 g/ha ([6]; pre-emergence, Preemergence, scale 0 to 100, 0 no effect, 100 complete control, read-out: Plant response rating, Velvetleaf): 80% | pest or weed control at 125 g/ha ([6]; pre-emergence, Preemergence, scale 0 to 100 (0 no effect, 100 complete control), read-out: Plant response rating, Velvetleaf): 100% | pest or weed control at 62 g/ha [7, 21]: 100% | pest or weed control at 125 g/ha [7, 21]: 100% | pest or weed control at 62 g/ha ([7]; pre-emergence, Preemergence, scale 0 to 100, 0 no effect, 100 complete control, read-out: Plant response rating, Lambsquarters): 100% | pest or weed control at 125 g/ha ([7]; pre-emergence, Preemergence, scale 0 to 100 (0 no effect, 100 complete control), read-out: Plant response rating, Lambsquarters): 100% | Cocklebur plant response rating ([8]; Postemergence, 62 g ai/ha, scale 0 to 100 (0 no effect, 100 complete control)): 70 | pest or weed control at 125 g/ha ([8]; Xanthium strumarium, post-emergence, Postemergence, scale 0 to 100 (0 no effect, 100 complete control), read-out: Cocklebur plant response rating): 100% | pest or weed control at 62 g/ha ([8]; Xanthium strumarium, pre-emergence, Preemergence, 62 g ai/ha, scale 0 to 100, 0 no effect, 100 complete control, read-out: Plant response rating, Cocklebur): 80% | pest or weed control at 125 g/ha ([8]; Xanthium strumarium, pre-emergence, Preemergence, scale 0 to 100 (0 no effect, 100 complete control), read-out: Plant response rating, Cocklebur): 100% | pest or weed control at 62 g/ha [9, 22]: 60% | pest or weed control at 125 g/ha [9, 22]: 90% | pest or weed control at 62 g/ha [9, 23]: 70% | pest or weed control at 125 g/ha [9, 23]: 90% | pest or weed control at 62 g/ha [10, 24]: 90% | pest or weed control at 125 g/ha [10, 24]: 100% | pest or weed control at 62 g/ha ([10]; pre-emergence, Preemergence, scale 0 to 100, 0 no effect, 100 complete control, read-out: Plant response rating, Pigweed): 100% | pest or weed control at 125 g/ha ([10]; pre-emergence, Preemergence, scale 0 to 100 (0 no effect, 100 complete control), read-out: Plant response rating, Pigweed): 100% | pest or weed control at 125 g/ha [11, 25]: 80% | pest or weed control at 62 g/ha [11, 25]: 70% | pest or weed control at 125 g/ha ([11]; pre-emergence, Preemergence, scale 0 to 100 (0 no effect, 100 complete control), read-out: Plant response rating, Surinam Grass): 90% | pest or weed control at 62 g/ha ([11]; pre-emergence, Preemergence, scale 0 to 100, 0 no effect, 100 complete control, read-out: Plant response rating, Surinam Grass): 60% | pest or weed control at 62 g/ha [12, 26]: 100% | pest or weed control at 125 g/ha [12, 26]: 100% | pest or weed control at 62 g/ha ([12]; pre-emergence, Preemergence, scale 0 to 100, 0 no effect, 100 complete control, read-out: Plant response rating, Morningglory): 100% | pest or weed control at 125 g/ha ([12]; pre-emergence, Preemergence, scale 0 to 100 (0 no effect, 100 complete control), read-out: Plant response rating, Morningglory): 100% | plant injury at 62 g/ha [13, 27]: 50% | plant injury at 125 g/ha [13, 27]: 60% | plant injury at 62 g/ha [13, 28]: 70% | plant injury at 125 g/ha [13, 28]: 70% | pest or weed control at 125 g/ha ([14]; 125 g ai/ha): 40% | pest or weed control at 500 g/ha ([14]; 500 g ai/ha): 80% | Plant response rating, Rice ([15]; 125 g ai/ha): 0 | plant injury at 500 g/ha ([15]; Oryza sativa, 500 g ai/ha, read-out: Plant response rating, Rice): 50% | pest or weed control at 500 g/ha ([16]; Echinochloa crus-galli, 500 g ai/ha, read-out: Plant response rating, Barnyardgrass): 60% | Plant response rating, Barnyardgrass ([16]; 125 g ai/ha): 0 | Plant response rating, Sedge, Umbrella ([17]; 125 g ai/ha): 0 | Plant response rating, Sedge, Umbrella ([17]; 500 g ai/ha): 40
